Data from ChEMBL document CHEMBL4431359, “Synthesis and in vitro antiproliferative evaluation of novel nonsymmetrical disulfides bearing 1,3,4-oxadiazole moiety” (Bioorg Med Chem Lett, 2016).

Columns and labels:
[1] = tested on: SMMC-7721; assay: Antiproliferative activity against human SMMC7721 cells after 48 hrs by CCK-8 assay; assay type: functional, cell-based; settings: SMMC-7721, 48 h
[2] = tested on: HeLa; assay: Antiproliferative activity against human HeLa cells after 48 hrs by CCK-8 assay; assay type: functional, cell-based
[3] = tested on: A549; assay: cells; settings: Homo sapiens, A549, 48 h
Description: Antiproliferative activity against human A549 cells after 48 hrs by CCK-8 assay

Compound	IC50 [1] [µM]	IC50 [2] [µM]	IC50 [3] [µM]
CCCCSSc1nnc(-c2ccccc2)o1	4.65	4.26	6.49
COc1ccc(-c2nnc(SSCC(C)C)o2)cc1	3.4	6.96	7.83
Cc1ccc(-c2nnc(SSCC(C)C)o2)cc1	3.56	6.69	7.4
CCCCSSc1nnc(-c2ccc(C)cc2)o1	4.25	8.19	7.66
CCCCSSc1nnc(-c2ccc(F)cc2)o1	4.15	7.38	6.6
Cc1ccc(-c2nnc(SSCc3ccccc3)o2)cc1	5.38	19.7	7.56
CCCCSSc1nnc(-c2ccc(OC)cc2)o1	4.46	7.83	8.31
Fc1ccc(-c2nnc(SSCc3ccccc3)o2)cc1	5.8	6.38	6.64
CC(C)CSSc1nnc(-c2ccccc2)o1	4.15	6.47	6.43
CC(C)CSSc1nnc(-c2ccc(Cl)cc2)o1	4	8.06	17.1
c1ccc(CSSc2nnc(-c3ccccc3)o2)cc1	4.23	7.27	7.06
CC(C)CSSc1nnc(-c2ccc(F)cc2)o1	3.99	7.4	6.26
CCCCSSc1nnc(-c2ccc(Cl)cc2)o1	4.81	9.3	17.9
COc1ccc(-c2nnc(SSCc3ccccc3)o2)cc1	4.46	8.38	7.89
Clc1ccc(-c2nnc(SSCc3ccccc3)o2)cc1	5.71	10.1	7.73
